Source: article PMC6508677, “Identification of druggable small molecule antagonists of the Plasmodium falciparum hexose transporter PfHT and assessment of ligand access to the glucose permeation pathway via FLAG-mediated protein engineering” (PLoS ONE, 2019)
“And” between values parts separate entries of the source, which are not always exact repeats. Equal entries are not always repeated. Where two headings read alike, the source gives them in different places.

Experiments:
hGLUT1 = molecular target: T1, hGLUT1 (Homo sapiens, UniProt P11166); test: 2-DG uptake by HEK293 cells overexpressing hGLUT1; type: cell-based; conditions: for IC50 for inhibition of 2-DG uptake: GLUT1 cell line; for inhibition at 5 µM: 5 μM compound
T1 construct: expressed in transfected cells; host or cells: HEK293 (HEK293-FLIP); native hGLUT1 not knocked down in this line
T1 sequence (P11166 1-492): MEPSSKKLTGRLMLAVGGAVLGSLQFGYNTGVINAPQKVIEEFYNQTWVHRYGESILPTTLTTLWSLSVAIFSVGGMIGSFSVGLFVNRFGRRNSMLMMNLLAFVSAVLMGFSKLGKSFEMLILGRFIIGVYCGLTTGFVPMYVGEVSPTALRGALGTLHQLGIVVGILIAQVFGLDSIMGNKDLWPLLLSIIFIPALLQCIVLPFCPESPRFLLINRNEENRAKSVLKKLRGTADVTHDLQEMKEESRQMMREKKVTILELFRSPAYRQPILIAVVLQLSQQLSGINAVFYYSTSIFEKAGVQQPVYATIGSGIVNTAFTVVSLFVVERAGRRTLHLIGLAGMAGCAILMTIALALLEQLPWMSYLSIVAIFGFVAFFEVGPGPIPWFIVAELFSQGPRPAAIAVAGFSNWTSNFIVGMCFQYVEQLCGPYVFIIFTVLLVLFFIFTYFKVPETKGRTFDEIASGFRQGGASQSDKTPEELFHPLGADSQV
Description: Generation of HEK293 cells overexpressing PfHT and human GLUTs 1–4 were described elsewhere. Briefly, HEK293 cells were transfected with pcDNA3.1 FLII12Pglu-7006 (Addgene), containing the fluorescence resonance energy transfer (FRET) glucose sensor (HEK293-FLIP) and PfHT, human GLUT1 (hGLUT1), hGLUT2, hGLUT3, hGLUT4, hGLUT5 or hGLUT8 using Optifect (Life Technologies) according to manufacturer’s specifications. To increase retention of GLUT8 at the plasma membrane, the dileucine sorting signal E^7E^8XXXLL was modified to R^7R^8XXXLL as described in [17]. Stable transfectants were selected for G418 and hygromycin resistance to select for FRET sensor and hexose transporter, respectively. HEK293-FLIP cells were also used to generate cells stably transfected with FLAG-tagged PfHT (FTPfHT). FLAG tag ([…]) followed by a triple glycine linker and a tobacco etch virus (TEV) protease site (ENLYFQS) followed by a triple glycine linker was added to the N-terminus of PfHT via PCR [18] using Phusion Hot Start II High-Fidelity DNA Polymerase (Fisher Scientific). Single clones were selected by comparing their abilities to transport glucose as assayed via FRET and radiolabeled hexose uptake. In all cell lines, except for HEK293 cells overexpressing hGLUT1 and hGLUT5, native hGLUT1 was knocked down using shRNA as described elsewhere. Transcript levels of the individual GLUTs expressed in each cell line are as described in [13, 15] and in S1 Fig.
Glucose uptake by P. falciparum was performed essentially as described. P. falciparum strain 3D7 was cultured in 100 mm tissue culture dishes (Techno Plastic Products) in a 2% suspension of human erythrocytes and RPMI 1640 medium until reaching > 7.5% parasitemia. Cells were pelleted via centrifugation and resuspended in RPMI 1640 medium. To determine the uptake of radiolabeled glucose into the parasite, parasites were isolated from infected erythrocytes by permeablization with saponin (0.05 w/v), followed by centrifugation, aspiration of supernatant and washing of the pellet 3X with saline solution (135 mM NaCl, 2 mM KCl, 25 mM HEPES, 0.2 mM glucose and 1 mM MgCl2; pH 7.1) to remove cellular debris. WU-1 or DMSO vehicle were added to 100 μl parasites (resuspended in saline) 5 min prior to the addition of 100 μl [^14C]2-DOG (0.2- μCi/ml final concentration). 2-DG uptake was stopped after 2 min by layering the entire reaction over 300 μl of an oil mixture (5:4 mix of dibutyl phthalate / dinonyl phthalate) in Eppendorf tubes and centrifuged at 15,850 × g for 2 mins. The ratio of the estimated intracellular concentration of radiolabel relative to the extracellular concentration were calculated as described. Uptake of radiolabeled hexose into HEK293 cells was measured in glucose-free HBSS as described previously. Briefly, cells were plated at 400,000 cells/well overnight at 37°C in 24-well plates pre-treated with PEI. After 30-min incubation at 37°C in glucose-free HBSS in the presence of vehicle or increasing concentrations of compound, 2-DG uptake was measured in glucose-free HBSS for 4 min at 37°C. Cultures were washed in ice-cold 1X PBS and lysed in 0.1% Triton X-100 in 1X PBS. Radiolabeled hexose uptake was determined by liquid scintillation counting (Ultima Gold, Thermo Fisher) and normalized to total protein per well. Uptake data are plotted as percent uptake relative to vehicle-treated cells. Kinetic analyses were performed using the indicated concentrations of substrate and WU-1, with quenching of uptake after 1 min incubation. Incubation times had been previously determined as being in the linear range of time-dependent radiolabeled hexose uptake (2 min for 2-DG uptake into freed parasites; 2 and 4 min for D-Frc and 2-DG uptake HEK cell lines, respectively). Data were fit by least squares nonlinear regression analysis using GraphPad Prism 6.0 software.

P. falciparum strain 3D7 = test: P. falciparum growth inhibition assay (Picogreen DNA content, 3 days); type: cell-based, Plasmodium falciparum; conditions: for EC50: P. falciparum 3D7 intraerythrocytic forms, 3 days, mean, read-out: EC50 (IC50 in Fig 4A) for inhibition of parasite growth; for IC50: 3D7, 3D7, Expt 1-3, read-out: IC50 for inhibition of parasite growth, individual experiments
Method: P. falciparum strain 3D7 was obtained from the Malaria Research and Reference Reagent Resource Center (MR4, ATCC, Manassas, VA). Parasites were cultured in a 2% suspension of human erythrocytes and RPMI 1640 (Sigma) medium supplemented with 27 mM sodium bicarbonate, 11 mM glucose, 5 mM HEPES, 1 mM sodium pyruvate, 0.37 mM hypoxanthine, 0.01 mM thymidine, 10 μg/ml gentamicin, and 0.5% Albumax (Gibco) at 37°C, 5% O2/ 5% CO2 / 90% N2 atmosphere as previously described.
Asynchronous P. falciparum cultures were diluted to 1% parasitemia and were treated with compounds at concentrations ranging from 0.195 μM—100 μM. Growth inhibition assays were performed in 100 μl cultures in opaque 96-well plates. Parasite growth was quantified after 3 days by measuring DNA content using Picogreen (Life Technologies)[22]. Fluorescence was measured by a FLUOstar Omega microplate reader (BMG Labtech) at 485 nm excitation and 528 nm emission. IC50 values were calculated by least squares nonlinear regression analysis using GraphPad Prism 6.0 software.

[1] = HEK293, 4 min, GLUT1, read-out: % Inhibition of 2-DG uptake vs vehicle
[2] = Plasmodium falciparum, 3D7, 72 h

Compound	2-DG uptake (percent uptake relative to vehicle) (hGLUT1; GLUT1, 0.001 µM compound)	2-DG uptake (percent uptake relative to vehicle) (hGLUT1; GLUT1, 1.25 µM compound)	2-DG uptake (percent uptake relative to vehicle) (hGLUT1; GLUT1, 2.5 µM compound)	2-DG uptake (percent uptake relative to vehicle) (hGLUT1; GLUT1, 5 µM compound)	2-DG uptake (percent uptake relative to vehicle) (hGLUT1; GLUT1, 10 µM compound)	2-DG uptake (percent uptake relative to vehicle) (hGLUT1; GLUT1, 20 µM compound)	2-DG uptake (percent uptake relative to vehicle) (hGLUT1; GLUT1, 40 µM compound)	2-DG uptake (percent uptake relative to vehicle) (hGLUT1; GLUT1, 80 µM compound)	2-DG uptake (percent uptake relative to vehicle) (hGLUT1; GLUT1, 160 µM compound)	2-DG uptake (percent uptake relative to vehicle) (hGLUT1; GLUT1, 225 µM compound)	IC50 for inhibition of 2-DG uptake (hGLUT1)	inhibition at 5 µM (hGLUT1; [1])	IC50 (P. falciparum strain 3D7; Plasmodium falciparum)	EC50 (P. falciparum strain 3D7; [2])	Parasite kill curve raw reading (Picogreen fluorescence), duplicate wells of Expt 1-3 (P. falciparum strain 3D7; concentration 0.195312 (μM))	Parasite kill curve raw reading (Picogreen fluorescence), duplicate wells of Expt 1-3 (P. falciparum strain 3D7; concentration 0.390625 (μM))	Parasite kill curve raw reading (Picogreen fluorescence), duplicate wells of Expt 1-3 (P. falciparum strain 3D7; concentration 0.78125 (μM))	Parasite kill curve raw reading (Picogreen fluorescence), duplicate wells of Expt 1-3 (P. falciparum strain 3D7; concentration 1.5625 (μM))	Parasite kill curve raw reading (Picogreen fluorescence), duplicate wells of Expt 1-3 (P. falciparum strain 3D7; concentration 25 (μM))	further results
Cc1ccc(S(=O)(=O)CCNC(=O)c2c(-c3c(Cl)cccc3Cl)noc2C)cc1 [WU-1, 3-(2,6-dichlorophenyl)-5-methyl-N-[2-(4-methylbenzenesulfonyl)ethyl]-1,2-oxazole-4-carboxamide]	100	99.74	109.88	102.1	100.82	110.03	120.62	121.35	125.18	132.09	n.i.	-2.1%	4.66 µM	5.5 ± 0.6 µM	31647.2 and 35553.2 and 49650 and 55614 and 44370 and 49901	38759.2 and 38857.2 and 52621 and 61368 and 45376 and 55663	33807.2 and 31780.2 and 49005 and 55418 and 44284 and 47486	30912.2 and 34557.2 and 48254 and 53201 and 42714 and 48519	7109.17 and 9009.17 and 13213 and 12190 and 10238 and 11917	EC50 (P. falciparum strain 3D7): 5.49 µM; Parasite kill curve raw reading (Picogreen fluorescence), duplicate wells of Expt 1-3 (P. falciparum strain 3D7; concentration 3.125 (μM)): 26767.2 and 25415.2 and 46950 and 47685 and 35273 and 35563; Parasite kill curve raw reading (Picogreen fluorescence), duplicate wells of Expt 1-3 (P. falciparum strain 3D7; concentration 6.25 (μM)): 20627.2 and 20040.2 and 32177 and 39080 and 23717 and 27707; Parasite kill curve raw reading (Picogreen fluorescence), duplicate wells of Expt 1-3 (P. falciparum strain 3D7; concentration 50 (μM)): 6656.17 and 8203.17 and 11766 and 11899 and 11265 and 11133
COc1c(Br)cc([N+](=O)[O-])c(OC)c1C(=O)NC(=O)Nc1c(C)cccc1Cl [WU-2, 3-(3-bromo-2,6-dimethoxy-5-nitrobenzoyl)-1-(2-chloro-6-methylphenyl)urea]	100	114.79	107.57	107.75	114.4	108.02	132.21	130.08	118.85	129.55	n.i.	-7.75%	21.3 µM	22.8 ± 0.8 µM	56098 and 51137 and 60240 and 31267.2 and 43585.2 and 60791	62198 and 51117 and 53186 and 43543.2 and 40121.2 and 61300	60027 and 63524 and 61078 and 36660.2 and 37397.2 and 61445	62718 and 60757 and 53560 and 40753.2 and 35617.2 and 59505	31771 and 33221 and 31489 and 18075.2 and 22893.2 and 29768	Parasite kill curve raw reading (Picogreen fluorescence), duplicate wells of Expt 1-3 (P. falciparum strain 3D7; concentration 12.5 (μM)): 44791 and 46211 and 39233 and 29745.2 and 34796.2 and 56088
COc1cc(/C=N/NC(=O)c2cc(-c3ccccc3)sc2N)cc(OC)c1OC [WU-3, 2-amino-5-phenyl-N'-[(E)-(3,4,5-trimethoxyphenyl)methylidene]thiophene-3-carbohydrazide]	–	–	–	–	–	–	–	–	–	–	–	–	–	–	–	–	–	–	–	inhibition at 10 µM (hGLUT1; HEK293, 4 min, GLUT1, 10 μM compound, read-out: % Inhibition of 2-DG uptake vs vehicle): ≥ 50%
COc1cc(/C=C2\COC/C(=C\c3cc(OC)c(OC)c(OC)c3)C2=O)cc(OC)c1OC [WU-5, (3E,5E)-3,5-bis[(3,4,5-trimethoxyphenyl)methylidene]oxan-4-one]	–	–	–	–	–	–	–	–	–	–	–	–	–	–	–	–	–	–	–	inhibition at 2.5 µM (hGLUT1; HEK293, 4 min, GLUT1, 2.5 μM compound, read-out: % Inhibition of 2-DG uptake vs vehicle): 2.94%
